Like-named read-outs stand apart in the source and are kept apart here.
Experiments:
[1] = Formation constants of mixed-ligand half-sandwich complexes (UV-vis and 1H NMR); format: physicochemical; settings: aqua complex + monodentate ligand; I = 0.10 M (KCl); t = 25.0 °C; UV-vis and 1H NMR
Description: NMR spectroscopic studies were carried out on a Bruker Avance III HD Ascend 500 Plus instrument. For the aqueous samples, ^1H NMR spectra were recorded with the WATERGATE water suppression pulse scheme using DSS internal standard. The highest peak of DSS was 0.00 ppm. The measurement was very similar to the UV-vis measurement since the complex–to–monodentate ligand ratio was also between 0–10 equivalents; the spectra were recorded after the given waiting time. […] This technique was useful in those cases where no spectral change was visible during the UV-vis titrations.
In both measurement methods, the formation constant (K) was obtained using the computer program PSEQUAD [38].
It is worthwhile to mention that the liberation of the bidentate ligand was not detected even at higher monodentate ligand excess (~10), which means that the disruption of the bond between the bidentate ligand and the metal center is not feasible under these conditions. The calculated formation constants are compared in Figure 5 and are collected in Table S2. The formation of the mixed-ligand complexes was not detected in three cases under the applied conditions, namely [Ru(p-cym)(en)(mim)]^2+, [Ru(p-cym)(phen)(mim)]^2+, and [Ru(p-cym)(en)(Py)]^2+. For these complexes, only a higher limit of the formation constant could be given, assuming that a maximum of 5% of the complex would form (limit of detection) under the conditions used for ^1H NMR spectroscopy. Based on Figure 5, the following trends are observed in the formation constants: (i) [RhCp*(en)(H2O)]^2+ and [RhCp*(phen)(H2O)]^2+ have a stronger monodentate ligand-binding ability than the Ru(p-cym) analogs; (ii) the formation constants of the [Ru(p-cym)(8HQH-1)(N)]^+ complexes are similar or somewhat higher than those of the RhCp* analogs; (iii) a stability trend for the monodentate ligand: mim > bim > Py (iv) and the bidentate ligand: 8HQH-1 > phen ≥ en can be seen.

[2] = Computed fractions of mixed-ligand complexes as function of pH from formation constants; format: physicochemical; settings: for difference in computed fraction (dissociated) when pH decreases from 7.4 to 6.0: 100 μM, ratio 1:1; for fraction of the active form (computed): pH 6.0
Description: With the help of these formation constants, the extent of complex formation can be estimated for a chosen monodentate ligand—complex chemical system under the desired conditions (concentration and pH). Figure 6 and Figure S25 show the computed fractions of the formed, mixed-ligand complexes between pH = 5 and 8 and at a 100 μM concentration (metal complex-to-monodentate ligand ratio = 1:1). The fraction at pH = 7.4 and at pH 6.0–6.7 were compared to each other.
As an example, the fractions of [Ru(p-cym)(8HQH−1)(mim)]^+ are shown in Figure S26 with decreasing concentration.
Formation constants shown in Figure 5 and in Table S2 were used for the calculation. Percentages indicate the fraction at pH = 7.4 (blue line) and in the range between pH = 6.0–6.7 (pink rectangle: possible pH of tumor microenvironment during acidosis).

[3] = test system: E. coli 32313 (resistant); assay: Antibacterial assay, MIC in 96-well plates at different pH; format: cell-based; settings: E. coli resistant, after one day, read-out: MIC
Excerpt: (§1) The antibacterial effect was studied in two Gram-positive and in two Gram-negative strains. The Gram-positive S. aureus ATCC 25923 (ATCC, Manassas, VA, USA) is a methicillin-susceptible reference bacterial strain, while S. aureus 272123 is a clinical isolate and resistant to methicillin and ofloxacin (MRSA), which was given by Prof. Dr. Leonard Amaral (Institute of Hygiene and Tropical Medicine, Lisbon, Portugal). The Gram-negative strains were E. coli ATCC 25922 (ATCC, Manassas, VA, USA), which is sensitive to antibiotics, and E. coli 32313 (provided by the Institute of Clinical Microbiology, University of Szeged, Hungary), which is resistant to different antibiotics (trimethoprim/sulfamethoxazole, gentamicin, ciprofloxacin, and norfloxacin).
(§2) The minimum inhibitory concentrations (MICs) of the compounds were determined in 96-well plates based on the Clinical and Laboratory Standard Institute guidelines. The compounds were diluted in 100 μL of Mueller Hinton broth. Then, an overnight bacterial culture diluted 10,000 times in 100 μL of medium was added to each well, with the exception of the medium control wells. For each strain and each tested compound, four pH values were set (5, 6, 7, and 8). Each sample was triplicated.

[4] = test system: E. coli ATCC 25922 (sensitive); assay: as above; format: cell-based; settings: E. coli sensitive, after one day, read-out: MIC
Excerpt: as §1, §2

[5] = test system: S. aureus 272123 (MRSA); assay: as above; format: cell-based; settings: read-out: MIC
Excerpt: as §1, §2

[6] = test system: S. aureus ATCC 25923 (methicillin-susceptible); assay: as above; format: cell-based; settings: S. aureus sensitive, after one day, read-out: MIC
Excerpt: as §1, §2

[7] = Proton dissociation constants of the coordinated water in [M(arene)(N,N/O)(H2O)]2+/+ complexes (UV-vis titration)
Excerpt: The proton dissociation of the aqua ligand in the [M(arene)(N,N/O)(H2O)]^2+/+ complexes (Scheme 2) results in the inert mixed-hydroxido species (general formula: [M(arene)(N,N/O)(OH)]^+/0).

[8] = test system: Colo205 human colon adenocarcinoma cell line (doxorubicin-sensitive); assay: MTT assay, cytotoxicity at pH 6 and 7; format: cell-based; settings: Colo205, 72 h incubation, read-out: IC50
Description: (§3) All cell culture reagents were obtained from Sigma-Aldrich (Merck KGaA, Darmstadt, Germany) and plasticware from Sarstedt (Nümbrecht, Germany). Human colonic adenocarcinoma cell lines Colo205 (catalog number: ATCC-CCL-222) and its doxorubicin-resistant counterpart Colo320 (catalog number: ATCC-CCL-220.1) were purchased from LGC Promochem (Teddington, UK). The cells were cultured in RPMI 1640 medium supplemented with 10% heat-inactivated fetal bovine serum, 2 mM L-glutamine, 1 mM sodium pyruvate, and 100 mM HEPES buffer, adjusting the pH to 6.0 or 7.0. The cells were incubated at 37 °C in a 5% CO2–95% air atmosphere. The semiadherent human colon cancer cells were detached with Trypsin-Versene solution for 5 min at 37 °C.
(§4) The solutions were freshly prepared prior to measurements (see Section 2.1). […] Firstly, these samples were diluted in complete culture medium; then, two-fold serial dilutions of the compounds were prepared in 100 μL of RPMI 1640, horizontally. The semiadherent colonic adenocarcinoma cells were treated with Trypsin-Versene solution. They were adjusted to a density of 1 × 10^4 cells in 100 μL of RPMI 1640 medium and were added to each well, with the exception of the medium control wells. The final volume of the wells containing compounds and cells was 200 μL. Samples were triplicated. The pH of the medium was adjusted to 6.0 or 7.0.
(§5) The culture plates were incubated at 37 °C for 72 h; at the end of the incubation period, 20 μL of MTT solution (from a stock solution of 5 mg/mL) was added to each well. After incubation at 37 °C for 4 h, 100 μL of SDS solution (10% in 0.01 M HCI) was added to each well, and the plates were further incubated at 37 °C overnight. Cell growth was determined by measuring the optical density (OD) at 540/630 nm with a Multiscan EX ELISA reader (Thermo Labsystems, Cheshire, WA, USA). […] Curves were fitted using GraphPad Prism software (2022, version 9.4.1, Graphpad Software (LLC) d.b.a Dotmatics, San Diego, CA, USA) using the sigmoidal dose–response model (comparing variable and fixed slopes).
(§6) The pH-dependent solution speciation of the selected mixed-ligand complexes is an important feature in the hypothesized mechanism of action, and the modeling of acidosis is necessary for the in vitro anticancer assays. In order to find out the cytotoxicity difference based on the pH of the medium, cytotoxic activity was determined at pH 6 and 7 by MTT assay in two human colon adenocarcinoma cell lines (doxorubicin-sensitive Colo205 and doxorubicin-resistant Colo320). […] The mixed-ligand complexes were prepared prior to the measurements, as was already described in Section 2.1. With this method, the effect of the different counter ions could be avoided, and a more adequate comparison of the mixed-ligand complexes could be conducted.

[9] = test system: Colo320 human colon adenocarcinoma cell line (doxorubicin-resistant); assay: MTT assay, cytotoxicity at pH 6 and 7; format: cell-based; settings: Colo320, 72 h incubation, read-out: IC50
Description: as §3, §4, §5, §6

[10] = pH 6, listed as [RhCp*(8HQH-1)Cl] +mim
[11] = pH 7, listed as [RhCp*(8HQH-1)Cl] +mim
[12] = I = 0.10 M (KCl), t = 25.0 °C, UV-vis
[13] = pH 6, listed as [RhCp*(phen)Cl]Cl +mim
[14] = pH 7, listed as [RhCp*(phen)Cl]Cl +mim

## Cc1c(C)c(C)[c-](C)c1C.Cn1ccnc1.[O-]c1cccc2cccnc12.[Rh+3] [[RhCp*(8HQH−1)(mim)]^+]
[1]
  Formation constant logK of mixed-ligand complex: 4.7 ± 0.2
[2]
  difference in computed fraction (dissociated) when pH decreases from 7.4 to 6.0: 13%
[3]; pH 5
  MIC: > 100 µM
[3]; [10]
  MIC: >100 µM
[3]; [11]
  MIC: >100 µM
[3]; pH 8
  MIC: > 100 µM
[4]; pH 5
  MIC: > 100 µM
[4]; [10]
  MIC: >100 µM
[4]; [11]
  MIC: >100 µM
[4]; pH 8
  MIC: > 100 µM
[5]; pH 5, after one day
  MIC: 50 µM
[5]; pH 6, after one day
  MIC: 25 µM
[5]; pH 7, after one day
  MIC: 12.5 µM
[5]; pH 8, after one day
  MIC: 12.5 µM
[6]; pH 7
  MIC: 12.5 µM
[6]; pH 8
  MIC: 12.5 µM

## Cc1ccc(C(C)C)cc1.O.[Ru+2].c1cnc2c(c1)ccc1cccnc12 [[Ru(p-cym)(phen)(H2O)]2+]
[7]; [12]
  pKa of the coordinated water molecule: 8.91±0.01

## Cc1ccc(C(C)C)cc1.NCCN.O.[Ru+2] [[Ru(p-cym)(en)(H2O)]2+]
[7]; [12]
  pKa of the coordinated water molecule: 9.03±0.01

## Cc1ccc(C(C)C)cc1.O.[O-]c1cccc2cccnc12.[Ru+2] [[Ru(p-cym)(8HQH-1)(H2O)]+]
[7]; [12]
  pKa of the coordinated water molecule: 9.31±0.01

## Cc1ccc(C(C)C)cc1.Cn1ccnc1.[O-]c1cccc2cccnc12.[Ru+2] [[Ru(p-cym)(8HQH−1)(mim)]^+]
[2]
  difference in computed fraction (dissociated) when pH decreases from 7.4 to 6.0: 10%
[2]; concentration 1 mM
  fraction of the active form (computed): 5%
[2]; concentration two orders of magnitude below 1 mM
  fraction of the active form (computed): 41%

## Cc1c(C)c(C)[c-](C)c1C.[Cl-].[Rh+2][O]c1cccc2cccnc12.c1ccncc1 [[RhCp*(8HQH−1)Cl] +Py]
[1]
  Formation constant logK of mixed-ligand complex: 3.0 ± 0.1
[8]; pH 6
  IC50: 7.2 ± 0.4 µM
[8]; pH 7
  IC50: 7.3 ± 0.3 µM
[9]; pH 6
  IC50: 6.2 ± 0.5 µM
[9]; pH 7
  IC50: 5.9 ± 0.1 µM
[3]; pH 6
  MIC: >100 µM
[3]; pH 7
  MIC: >100 µM
[4]; pH 6
  MIC: >100 µM
[4]; pH 7
  MIC: >100 µM
[5]; pH 6, after one day
  MIC: 50 µM
[5]; pH 7, after one day
  MIC: 12.5 µM
[6]; pH 7
  MIC: 12.5 µM

## Cc1c(C)c(C)[c-](C)c1C.Cn1ccnc1.[Rh+3].c1cnc2c(c1)ccc1cccnc12 [[RhCp*(phen)(mim)]^2+]
[1]
  Formation constant logK of mixed-ligand complex: 5.5 ± 0.1
[2]
  difference in computed fraction (dissociated) when pH decreases from 7.4 to 6.0: 25%
[3]; pH 5
  MIC: > 100 µM
[3]; [13]
  MIC: >100 µM
[3]; [14]
  MIC: >100 µM
[3]; pH 8
  MIC: > 100 µM
[4]; pH 5
  MIC: > 100 µM
[4]; [13]
  MIC: >100 µM
[4]; [14]
  MIC: >100 µM
[4]; pH 8
  MIC: > 100 µM
[5]; pH 5, after one day
  MIC: > 100 µM
[5]; pH 6, after one day, listed as [RhCp*(phen)Cl]Cl +mim
  MIC: >100 µM
[5]; pH 7, after one day, listed as [RhCp*(phen)Cl]Cl +mim
  MIC: >100 µM
[5]; pH 8, after one day
  MIC: > 100 µM
[6]; [14]
  MIC: >100 µM
[6]; pH 8
  MIC: > 100 µM

## Cc1c(C)c(C)[c-](C)c1C.O.[O-]c1cccc2cccnc12.[Rh+3] [[RhCp*(8HQH-1)(H2O)]+]
[7]
  pKa of the coordinated water molecule: 10.6±0.1

Source: publication PMC9964319, “Half-Sandwich Rhodium Complexes with Releasable N-Donor Monodentate Ligands: Solution Chemical Properties and the Possibility for Acidosis Activation” (Pharmaceutics, 2023)
